# Experimental data as given in PubChem BioAssay AID1259407 (Chemical Carcinogenesis Research Information System (CCRIS), 2018).
# Activity calls are given as the source filed them. No rule for the calls is given here.
# Test system: CCRIS mutagenicity, Ames/micronucleus/aberration tests
# Assay: CCRIS mutagenicity studies
# [1] = Test System: AMES SALMONELLA TYPHIMURIUM, Strain/Indicator: TA98, Metabolic Activation: NONE, Method: PREINCUBATION
# [2] = Test System: AMES SALMONELLA TYPHIMURIUM, Strain/Indicator: TA100, Metabolic Activation: NONE, Method: PREINCUBATION
# [3] = Test System: AMES SALMONELLA TYPHIMURIUM, Strain/Indicator: TA1535, Metabolic Activation: NONE, Method: PREINCUBATION
# [4] = Test System: AMES SALMONELLA TYPHIMURIUM, Strain/Indicator: TA100, Metabolic Activation: NONE, Method: STANDARD PLATE
compound,measurement,setting,value
ClCC(Cl)COCC(Cl)CCl (stereo unspecified),mutagenic call,[1],inactive; negative
same,mutagenic call,"Test System: AMES SALMONELLA TYPHIMURIUM, Strain/Indicator: TA98, Metabolic Activation: RAT LIVER S-9, AROCLOR 1254 (10%), Method: PREINCUBATION",active; positive
same,mutagenic call,[2],inactive; negative
same,mutagenic call,"Test System: AMES SALMONELLA TYPHIMURIUM, Strain/Indicator: TA100, Metabolic Activation: RAT LIVER S-9, AROCLOR 1254 (10%), Method: PREINCUBATION",active; positive
same,mutagenic call,[3],inactive; negative
same,mutagenic call,"Test System: AMES SALMONELLA TYPHIMURIUM, Strain/Indicator: TA1535, Metabolic Activation: RAT LIVER S-9, AROCLOR 1254 (10%), Method: PREINCUBATION",active; positive
same,mutagenic call,"Test System: AMES SALMONELLA TYPHIMURIUM, Strain/Indicator: TA1538, Metabolic Activation: NONE, Method: PREINCUBATION",inactive; negative
same,mutagenic call,"Test System: AMES SALMONELLA TYPHIMURIUM, Strain/Indicator: TA1538, Metabolic Activation: RAT LIVER S-9, AROCLOR 1254 (10%), Method: PREINCUBATION",inactive; negative
O[C@@H]1[C@H]2O[C@H]2c2c(ccc3ccccc23)[C@H]1O,mutagenic call,"Test System: AMES SALMONELLA TYPHIMURIUM, Strain/Indicator: TA97, Metabolic Activation: NONE, Method: PREINCUBATION",active; positive
same,mutagenic call,[1],active; positive
same,mutagenic call,[2],active; positive
same,mutagenic call,[4],active; positive
same,mutagenic call,"Test System: AMES SALMONELLA TYPHIMURIUM, Strain/Indicator: TA104, Metabolic Activation: NONE, Method: PREINCUBATION",active; positive
same,mutagenic call,"Test System: CHINESE HAMSTER V-79, Strain/Indicator: V-79/6-THIOGUANINE, Metabolic Activation: NONE",active; positive
CC[C@]1(O)C[C@@H]2CN(CCc3c([nH]c4ccccc34)[C@@](C(=O)OC)(c3cc4c(cc3OC)N(C)[C@H]3[C@@](O)(C(=O)OC)[C@H](OC(C)=O)[C@]5(CC)C=CCN6CC[C@]43[C@@H]65)C2)C1,mutagenic call,"End Point: IN VITRO CHROMOSOMAL ABERRATIONS, Test System: CHL/IU CELLS, Metabolic Activation: NONE",active; positive (ploidy changes)
same,mutagenic call,"End Point: IN VITRO MICRONUCLEUS, Test System: CHL/IU CELLS, Metabolic Activation: NONE",active; positive
same,mutagenic call,"End Point: IN VITRO MICRONUCLEUS, Test System: CHO CELLS, Metabolic Activation: RAT, LIVER, S-9, AROCLOR 1254",active; positive
same,mutagenic call,"End Point: IN VITRO MICRONUCLEUS, Test System: HAMSTER V79 CELLS, Metabolic Activation: NONE",active; positive
same,mutagenic call,"End Point: IN VITRO MICRONUCLEUS, Test System: HUMAN PERIPHERAL BLOOD LYMPHOCYTES (FEMALES, AGE LESS THAN 30 AND AGE GREATER THAN 50 YR), Metabolic Activation: NONE",micronuclei elevated in elderly donors
same,mutagenic call,"End Point: IN VITRO MICRONUCLEUS, Test System: V79 CELLS, Metabolic Activation: NONE",active; positive
same,mutagenic call,"End Point: IN VIVO CHROMOSOMAL ABERRATIONS, Test System: BONE MARROW CELLS, Species: MOUSE, Strain/Sex: SWISS/MALE, FEMALE, Route: IP",active; positive
same,mutagenic call,"End Point: IN VIVO MICRONUCLEUS, Test System: POLYCHROMATIC ERYTHROCYTES, Species: MOUSE, Strain/Sex: ALBINO SWISS/MALE, Route: IP",active; positive
same,mutagenic call,"End Point: IN VIVO MICRONUCLEUS, Test System: POLYCHROMATIC ERYTHROCYTES, Species: MOUSE, Strain/Sex: SWISS/MALE, FEMALE, Route: IP",active; positive
same,mutagenic call,[1],inactive; negative
same,mutagenic call,"Test System: AMES SALMONELLA TYPHIMURIUM, Strain/Indicator: TA98, Metabolic Activation: NONE, Method: STANDARD PLATE",inactive; negative
same,mutagenic call,"Test System: AMES SALMONELLA TYPHIMURIUM, Strain/Indicator: TA98, Metabolic Activation: S-9, Method: PREINCUBATION",inactive; negative
same,mutagenic call,"Test System: AMES SALMONELLA TYPHIMURIUM, Strain/Indicator: TA98, Metabolic Activation: S-9, Method: STANDARD PLATE",inactive; negative
same,mutagenic call,[2],inactive; negative
same,mutagenic call,[4],inactive; negative
same,mutagenic call,"Test System: AMES SALMONELLA TYPHIMURIUM, Strain/Indicator: TA100, Metabolic Activation: S-9, Method: PREINCUBATION",inactive; negative
same,mutagenic call,"Test System: AMES SALMONELLA TYPHIMURIUM, Strain/Indicator: TA100, Metabolic Activation: S-9, Method: STANDARD PLATE",inactive; negative
same,mutagenic call,"Test System: AMES SALMONELLA TYPHIMURIUM, Strain/Indicator: TA1537, Metabolic Activation: S-9, Method: STANDARD PLATE",inactive; negative
same,mutagenic call,"Test System: E. COLI, Strain/Indicator: WP2 (HCR), Metabolic Activation: NONE, Method: STANDARD PLATE",inactive; negative
same,mutagenic call,"Test System: E. COLI, Strain/Indicator: WP2 (HCR), Metabolic Activation: S-9, Method: STANDARD PLATE",inactive; negative
same,mutagenic call,"Test System: MOUSE LYMPHOMA, Strain/Indicator: L5178Y(TK+/TK-), Metabolic Activation: NONE, Method: MICROWELL",active; positive
CCCCCCc1ccc(O)cc1O,mutagenic call,"End Point: IN VITRO CHROMOSOMAL ABERRATIONS, Test System: CHO CELLS, Metabolic Activation: NONE",inactive; negative
same,mutagenic call,"End Point: IN VITRO CHROMOSOMAL ABERRATIONS, Test System: CHO CELLS, Metabolic Activation: RAT, LIVER, S-9, AROCLOR 1254",inactive; negative
same,mutagenic call,"Test System: AMES SALMONELLA TYPHIMURIUM, Strain/Indicator: TA98, Metabolic Activation: HAMSTER, LIVER, S-9, AROCLOR 1254, Method: PREINCUBATION",inactive; negative
same,mutagenic call,[1],inactive; negative
same,mutagenic call,"Test System: AMES SALMONELLA TYPHIMURIUM, Strain/Indicator: TA98, Metabolic Activation: RAT, LIVER, S-9, AROCLOR 1254, Method: PREINCUBATION",inactive; negative
same,mutagenic call,"Test System: AMES SALMONELLA TYPHIMURIUM, Strain/Indicator: TA100, Metabolic Activation: HAMSTER, LIVER, S-9, AROCLOR 1254, Method: PREINCUBATION",inactive; negative
same,mutagenic call,[2],inactive; negative
same,mutagenic call,"Test System: AMES SALMONELLA TYPHIMURIUM, Strain/Indicator: TA100, Metabolic Activation: RAT, LIVER, S-9, AROCLOR 1254, Method: PREINCUBATION",inactive; negative
same,mutagenic call,"Test System: AMES SALMONELLA TYPHIMURIUM, Strain/Indicator: TA1535, Metabolic Activation: HAMSTER, LIVER, S-9, AROCLOR 1254, Method: PREINCUBATION",inactive; negative
same,mutagenic call,[3],inactive; negative
same,mutagenic call,"Test System: AMES SALMONELLA TYPHIMURIUM, Strain/Indicator: TA1535, Metabolic Activation: RAT, LIVER, S-9, AROCLOR 1254, Method: PREINCUBATION",inactive; negative
same,mutagenic call,"Test System: AMES SALMONELLA TYPHIMURIUM, Strain/Indicator: TA1537, Metabolic Activation: HAMSTER, LIVER, S-9, AROCLOR 1254, Method: PREINCUBATION",inactive; negative
same,mutagenic call,"Test System: AMES SALMONELLA TYPHIMURIUM, Strain/Indicator: TA1537, Metabolic Activation: NONE, Method: PREINCUBATION",inactive; negative
same,mutagenic call,"Test System: AMES SALMONELLA TYPHIMURIUM, Strain/Indicator: TA1537, Metabolic Activation: RAT, LIVER, S-9, AROCLOR 1254, Method: PREINCUBATION",inactive; negative
same,mutagenic call,"Test System: MOUSE LYMPHOMA, Strain/Indicator: L5178Y (TK+/TK-), Metabolic Activation: NONE, Method: SUSPENSION/PLATE",inactive; negative
same,mutagenic call,"Test System: MOUSE LYMPHOMA, Strain/Indicator: L5178Y (TK+/TK-), Metabolic Activation: RAT, LIVER, S-9, AROCLOR 1254, Method: SUSPENSION/PLATE",active; positive
